biological target: T1, Tyrosine-protein phosphatase non-receptor type 2 (Homo sapiens, UniProt P17706); experiment: Binding affinity for T-cell Protein tyrosine phosphatase (TCPTP)
T1 sequence (P17706 whole entry): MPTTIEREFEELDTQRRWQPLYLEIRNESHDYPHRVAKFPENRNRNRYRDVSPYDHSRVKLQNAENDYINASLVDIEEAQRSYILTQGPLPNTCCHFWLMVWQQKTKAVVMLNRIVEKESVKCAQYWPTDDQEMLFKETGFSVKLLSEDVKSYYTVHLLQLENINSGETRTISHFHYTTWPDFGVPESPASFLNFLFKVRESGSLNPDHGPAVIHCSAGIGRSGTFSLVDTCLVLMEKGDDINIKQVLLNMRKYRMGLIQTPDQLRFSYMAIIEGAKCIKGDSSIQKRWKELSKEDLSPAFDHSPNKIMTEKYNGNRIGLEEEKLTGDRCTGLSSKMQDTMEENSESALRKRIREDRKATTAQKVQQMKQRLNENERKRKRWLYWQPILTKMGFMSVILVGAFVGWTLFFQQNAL

`COC(=O)c1c(O)cccc1OC/C=C/c1cccc(-c2onc(C(=O)O)c2CO)c1` gave a Ki of 19.2 µM.

biological target: T2, Tyrosine-protein phosphatase non-receptor type 1 (Mus musculus, UniProt P35821); experiment: Binding affinity for mouse protein-tyrosine phosphatase 1B (PTP1B) expressed in COS 7 cells; format: cell-based
T2 sequence (P35821 whole entry): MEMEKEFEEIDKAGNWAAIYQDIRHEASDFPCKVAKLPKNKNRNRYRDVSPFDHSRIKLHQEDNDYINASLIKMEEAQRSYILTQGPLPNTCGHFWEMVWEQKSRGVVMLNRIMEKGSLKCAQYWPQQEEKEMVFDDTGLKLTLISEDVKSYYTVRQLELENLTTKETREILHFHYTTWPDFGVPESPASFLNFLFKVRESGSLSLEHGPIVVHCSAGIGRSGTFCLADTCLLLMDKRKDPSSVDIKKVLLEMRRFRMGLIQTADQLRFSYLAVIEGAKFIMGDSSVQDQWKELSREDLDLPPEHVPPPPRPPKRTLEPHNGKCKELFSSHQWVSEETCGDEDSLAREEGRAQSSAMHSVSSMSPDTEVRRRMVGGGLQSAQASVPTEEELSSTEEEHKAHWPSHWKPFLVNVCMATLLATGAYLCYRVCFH

Point of comparison: `COC(=O)c1c(O)cccc1OC/C=C/c1ccc2c(c1)-c1onc(C(=O)O)c1CC2`, Ki 11.5 µM. Against it:
- COC(=O)c1c(O)cccc1OCCNc1cccc(-c2cc(C(=O)O)no2)c1 — 5.2-fold higher, 60.3 µM
- COC(=O)c1c(O)cccc1OCC(=O)Nc1cccc(-c2cc(C(=O)O)no2)c1 — 19-fold higher, 216 µM
- COC(=O)c1c(O)cccc1OCC(O)Cc1cccc(-c2cc(C(=O)O)no2)c1 (stereo not drawn) — 11-fold higher, 122 µM
- COC(=O)c1c(O)cccc1OCCCc1cccc(-c2cc(C(=O)O)no2)c1 — 2-fold higher, 23 µM
- COC(=O)c1c(O)cccc1OC/C=C/c1cccc(-c2onc(C(=O)O)c2CO)c1 — 12-fold lower, 0.92 µM
- COC(=O)c1c(O)cccc1OC/C=C/c1cccc(-c2onc(C(=O)O)c2N)c1 — 5.5-fold lower, 2.1 µM

From ChEMBL document CHEMBL1138021, “Isoxazole carboxylic acids as protein tyrosine phosphatase 1B (PTP1B) inhibitors” (Bioorg Med Chem Lett, 2004)
